# Target: T1, ERα protein (HiBiT-tagged) in ESR1_HiBiT KI MCF7 cells (Homo sapiens, UniProt P03372)
# T1 sequence (P03372 1-595): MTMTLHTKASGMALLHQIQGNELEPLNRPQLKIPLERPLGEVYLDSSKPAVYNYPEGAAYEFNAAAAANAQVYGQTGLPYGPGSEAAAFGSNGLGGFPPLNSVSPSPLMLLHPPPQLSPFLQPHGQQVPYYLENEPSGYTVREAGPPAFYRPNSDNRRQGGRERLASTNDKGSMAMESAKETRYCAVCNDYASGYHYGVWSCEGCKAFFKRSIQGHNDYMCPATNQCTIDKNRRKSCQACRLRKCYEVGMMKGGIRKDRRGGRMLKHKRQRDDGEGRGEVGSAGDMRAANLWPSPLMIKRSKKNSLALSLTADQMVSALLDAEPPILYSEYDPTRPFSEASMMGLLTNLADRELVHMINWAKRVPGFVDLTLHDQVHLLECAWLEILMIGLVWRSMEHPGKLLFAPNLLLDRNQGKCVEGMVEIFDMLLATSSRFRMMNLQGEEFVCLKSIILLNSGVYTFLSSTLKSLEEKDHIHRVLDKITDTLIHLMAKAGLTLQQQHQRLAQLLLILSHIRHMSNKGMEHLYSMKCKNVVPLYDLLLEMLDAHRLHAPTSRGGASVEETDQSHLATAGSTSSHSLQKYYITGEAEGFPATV
# Assay: Nano Glo HiBiT Lytic Degradation Assay
# Type: cell-based
# Conditions: 6 hours with compound, 14-point dose response 1:3, bell-shape curve fit, half-maximal effect of first Hill model, read-out: MCF7 ESR1 HiBiT - (DC50)
# Summary of the method: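 Lytic Nano-Glo HiBiT luminescence quantified ERα remaining after a 6 h, 37° C compound exposure of MCF7 cells carrying endogenous HiBiT-tagged ESR1. Dosing used 14 threefold dilutions from a 10 mM DMSO stock (0.1% DMSO final), run in duplicate. Signals were corrected for cell-free background and expressed relative to DMSO, and DC50 came from a bell-shaped curve fit (first Hill model half-maximum).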
row,SMILES,DC50 [nM]
1,"O=C1CC[C@H](N2Cc3cc(N4CCN(CC5CCN(c6ccc([C@H]7c8ccc(O)cc8CC[C@]78CCc7ccccc78)cc6)CC5)CC4)ccc3C2=O)C(=O)N1 [Compound I-259, (S)-3-(5-(4-((1-(4-((1R,1′R)-6′-hydroxy-2,3,3′,4′-tetrahydro-1′H-spiro[indene-1,2′-naphthalen]-1′-yl)phenyl)piperidin-4-yl)methyl)piperazin-1-yl)-1-oxoisoindolin-2-yl)piperidine-2,6-dione]",98
2,"C[C@@]1(N2Cc3cc(N4CCN(CC5CCN(c6ccc([C@@H]7c8ccc(O)cc8CC[C@@H]7c7ccccc7)cc6)CC5)CC4)ccc3C2=O)CCC(=O)NC1=O (single isomer, unassigned) [II-58]",≥ 10000
3,"O=C1CCC(c2ccc(N3CCN(C4CCN(c5ccc([C@@H]6c7ccc(O)cc7CC[C@@H]6c6ccccc6)cc5)CC4)CC3)cc2)C(=O)N1 (single isomer, unassigned) [Compound I-40]",370
4,"O=C1CCC(c2cccc(N3CCC4(CCN(CC5CCN(c6ccc([C@@H]7c8ccc(O)cc8CC[C@@H]7c7ccccc7)cc6)CC5)CC4)CC3)c2)C(=O)N1 (stereo partly drawn) [Compound I-183, 3-(3-(9-((1-(4-((1R,2S)-6-hydroxy-2-phenyl-1,2,3,4-tetrahydronaphthalen-1-yl)phenyl)piperidin-4-yl)methyl)-3,9-diazaspiro[5.5]undecan-3-yl)phenyl)piperidine-2,6-dione]",≥ 10000
5,"COc1cc(N2CCC(CN3CCN(c4ccc5c(c4)CN([C@H]4CCC(=O)NC4=O)C5=O)CC3)CC2)ccc1[C@H]1c2ccc(O)cc2CC[C@H]1C1CCCCC1 [Compound I-151, (S)-3-(5-(4-((1-(4-((1R,2S)-2-cyclohexyl-6-hydroxy-1,2,3,4-tetrahydronaphthalen-1-yl)-3-methoxyphenyl)piperidin-4-yl)methyl)piperazin-1-yl)-1-oxoisoindolin-2-yl)piperidine-2,6-dione]",11
6,"O=C1CC[C@H](N2Cc3cc(N4CCN(CC5CCN(c6ccc([C@@H]7c8ccc(O)cc8CC[C@@H]7c7ccc8c(c7)CCCC8)cc6)CC5)CC4)ccc3C2=O)C(=O)N1 (single isomer, unassigned) [Compound I-59]",906
7,"CC(C)[C@@H]1OCc2cc(O)ccc2[C@@H]1c1ccc(N2CCC(CN3CCN(c4ccc5c(c4)CN([C@H]4CCC(=O)NC4=O)C5=O)CC3)CC2)cc1 (single isomer, unassigned) [Compound I-226]",59
8,"CC(C)C[C@H]1OCc2cc(O)ccc2[C@@H]1c1ccc(N2CCC(CN3CCN(c4ccc5c(c4)CN([C@H]4CCC(=O)NC4=O)C5=O)CC3)CC2)cc1 (single isomer, unassigned) [Compound I-223]",10
9,"O=C1CC[C@H](N2Cc3cc(N4CCN(CC5CCN(c6ccc([C@H]7c8ccc(O)cc8CO[C@H]7c7ccccc7)cc6)CC5)CC4)ccc3C2=O)C(=O)N1 [Compound I-4, (S)-3-(5-(4-((1-(4-((3R,4S)-7-hydroxy-3-phenylisochroman-4-yl)phenyl)piperidin-4-yl)methyl)piperazin-1-yl)-1-oxoisoindolin-2-yl)piperidine-2,6-dione]",59.4
10,"O=C1CCC(c2ccc(N3CCC4(CCN(CC5CCN(c6ccc([C@@H]7c8ccc(O)cc8C(F)(F)C[C@@H]7c7ccccc7)cc6)CC5)C4)C3)cc2)C(=O)N1 (single isomer, unassigned) [Compound I-282, 3-(4-((R*)-7-((1-(4-((1R,2S)-4,4-difluoro-6-hydroxy-2-phenyl-1,2,3,4-tetrahydronaphthalen-1-yl)phenyl)piperidin-4-yl)methyl)-2,7-diazaspiro[4.4]nonan-2-yl)phenyl)piperidine-2,6-dione]",24.5
11,"O=C1CC[C@H](N2Cc3cc(N4CCN(CC5CCN(c6ccc([C@@H]7c8ccc(O)cc8CC[C@@H]7c7ccc(C(F)(F)F)cc7)cc6)CC5)CC4)ccc3C2=O)C(=O)N1 (single isomer, unassigned) [II-40]",≥ 10000
12,"C[C@H]1CN(CC2CCN(c3ccc([C@H]4c5ccc(O)cc5CC[C@H]4c4ccccc4)cc3)CC2)CCN1c1ccc2c(c1)CN([C@H]1CCC(=O)NC1=O)C2=O (single isomer, unassigned) [II-12]",≥ 10000
13,O=C1CC[C@H](N2Cc3cc(N4CCN(CC5CCN(c6ccc([C@H]7c8ccc(O)cc8CC[C@H]7c7ccccc7)cc6F)CC5)CC4)ccc3C2=O)C(=O)N1 [II-81],≥ 10000

# The next molecules have a lower DC50 than those just listed; values first:
row,DC50 [nM],SMILES
1,6,"C[C@@H]1CN(CC2CCN(c3ccc([C@@H]4c5ccc(O)cc5CC[C@@H]4c4ccccc4)cc3)CC2)CCN1c1ccc2c(c1)CN([C@H]1CCC(=O)NC1=O)C2=O (single isomer, unassigned) [II-3]"
2,3,"C[C@@]1(C2CCCCC2)CCc2cc(O)ccc2[C@H]1c1ccc(N2CCC(CN3CCN(c4ccc5c(c4)CN([C@H]4CCC(=O)NC4=O)C5=O)CC3)CC2)cc1 [Compound I-240, (S)-3-(5-(4-((1-(4-((1R,2S)-2-cyclohexyl-6-hydroxy-2-methyl-1,2,3,4-tetrahydronaphthalen-1-yl)phenyl)piperidin-4-yl)methyl)piperazin-1-yl)-1-oxoisoindolin-2-yl)piperidine-2,6-dione]"
3,2,"O=C1CC[C@H](N2Cc3cc(N4C[C@H]5C[C@@H]4CN5CC4CCN(c5ccc([C@@H]6c7ccc(O)cc7CC[C@@H]6c6ccccc6)cc5)CC4)ccc3C2=O)C(=O)N1 (single isomer, unassigned) [II-5]"
4,1.37,O=C1CC[C@H](N2Cc3cc(N4CCN(CC5CCN(c6ccc([C@@H]7c8ccc(O)cc8CC[C@@H]7c7ccccc7)nc6)CC5)CC4)ccc3C2=O)C(=O)N1 [II-78]
5,1.3,"O=C1CCC(c2ccc(N3CCC4(CCN(CC5CCN(c6ccc([C@@H]7c8ccc(O)cc8CC[C@@H]7c7ccccc7)cc6)CC5)CC4)CC3)cc2)C(=O)N1 (stereo partly drawn) [Compound I-180, 3-[4-[9-[[1-[4-[(1R,2S)-6-hydroxy-2-phenyl-tetralin-1-yl]phenyl]-4-piperidyl]methyl]-3,9-diazaspiro[5.5]undecan-3-yl]phenyl]piperidine-2,6-dione]"
6,1,C[C@@H]1CN(c2ccc3c(c2)CN([C@H]2CCC(=O)NC2=O)C3=O)CCN1CC1CCN(c2ccc([C@@H]3c4ccc(O)cc4CC[C@@H]3c3ccccc3)cc2)CC1 [II-2]
7,0.89,"Cc1cc([C@H]2OCc3cc(O)ccc3[C@H]2c2ccc(N3CCC(CN4CCN(c5ccc6c(c5)CN([C@H]5CCC(=O)NC5=O)C6=O)CC4)CC3)cc2)ccc1F [Compound I-375, (S)-3-(5-(4-((1-(4-((3S,4R)-3-(4-fluoro-3-methylphenyl)-7-hydroxyisochroman-4-yl)phenyl)piperidin-4-yl)methyl)piperazin-1-yl)-1-oxoisoindolin-2-yl)piperidine-2,6-dione]"
8,0.49,"CC(C)C[C@H]1CC(F)(F)c2cc(O)ccc2[C@H]1c1ccc(N2CCC(CN3CCN(c4ccc5c(c4)CN([C@H]4CCC(=O)NC4=O)C5=O)CC3)CC2)cc1 [Compound I-197, (S)-3-(5-(4-((1-(4-((1R,2S)-4,4-difluoro-6-hydroxy-2-isobutyl-1,2,3,4-tetrahydronaphthalen-1-yl)phenyl)piperidin-4-yl)methyl)piperazin-1-yl)-1-oxoisoindolin-2-yl)piperidine-2,6-dione]"
9,0.45,"C[C@H]1O[C@@H](C2CCCCC2)[C@H](c2ccc(N3CCC(CN4CCN(c5ccc6c(c5)CN([C@H]5CCC(=O)NC5=O)C6=O)CC4)CC3)cc2)c2ccc(O)cc21 (single isomer, unassigned) [Compound I-253]"
10,0.36,"[2H]c1c([2H])c([2H])c([C@H]2CC(F)(F)c3cc(O)ccc3[C@H]2c2ccc(N3CCC(CN4CCN(c5ccc6c(c5)CN([C@H]5CCC(=O)NC5=O)C6=O)CC4)CC3)cc2)c([2H])c1[2H] [Compound I-335, (S)-3-(5-(4-((1-(4-((1R,2S)-4,4-difluoro-6-hydroxy-2-(phenyl-d5)-1,2,3,4-tetrahydronaphthalen-1-yl)phenyl)piperidin-4-yl)methyl)piperazin-1-yl)-1-oxoisoindolin-2-yl)piperidine-2,6-dione]"
11,0.23,"O=C1CC[C@H](N2Cc3cc(N4CCN(CC5CCN(c6ccc([C@@H]7c8ccc(O)cc8CO[C@@H]7C7CCC7)cc6)CC5)CC4)ccc3C2=O)C(=O)N1 [Compound I-245, (S)-3-(5-(4-((1-(4-((3R,4R)-3-cyclobutyl-7-hydroxyisochroman-4-yl)phenyl)piperidin-4-yl)methyl)piperazin-1-yl)-1-oxoisoindolin-2-yl)piperidine-2,6-dione]"
12,0.22,O=C1CCC(N2Cc3cc(N4CCN(CC5CCC(c6ccc([C@@H]7c8ccc(O)cc8CC[C@@H]7c7ccccc7)cc6)CC5)CC4)ccc3C2=O)C(=O)N1 (stereo partly drawn) [II-53]
13,0.15,O=C1CC[C@H](N2Cc3cc(N4CCN(CC5CCN(c6cc(F)c([C@@H]7c8ccc(O)cc8CC[C@@H]7c7ccccc7)c(F)c6)CC5)CC4)ccc3C2=O)C(=O)N1 [II-102]
14,0.02,"Cc1cc([C@@H]2CCc3cc(O)ccc3[C@@H]2c2ccc(N3CCC(CN4CCN(c5ccc6c(c5)CN([C@H]5CCC(=O)NC5=O)C6=O)CC4)CC3)cc2)n(C)n1 (single isomer, unassigned) [Compound I-415]"

# Source: patent US20250388565A1, “ESTROGEN RECEPTOR ALPHA DEGRADERS AND METHODS OF USE THEREOF” (Relay Therapeutics, Inc., priority 2022, published 2025)
